# Results taken from the Kinase Knowledgebase extract (Sharma et al. 2016).
# pIC50: −log10 of the molar value.
# Molecular target: PIK3CA (human) (UniProt P42336)
# Assay: Inhibition of PIK3CA Kinase Activity
# PIK3CA (human), sequence (P42336 whole entry, looked up): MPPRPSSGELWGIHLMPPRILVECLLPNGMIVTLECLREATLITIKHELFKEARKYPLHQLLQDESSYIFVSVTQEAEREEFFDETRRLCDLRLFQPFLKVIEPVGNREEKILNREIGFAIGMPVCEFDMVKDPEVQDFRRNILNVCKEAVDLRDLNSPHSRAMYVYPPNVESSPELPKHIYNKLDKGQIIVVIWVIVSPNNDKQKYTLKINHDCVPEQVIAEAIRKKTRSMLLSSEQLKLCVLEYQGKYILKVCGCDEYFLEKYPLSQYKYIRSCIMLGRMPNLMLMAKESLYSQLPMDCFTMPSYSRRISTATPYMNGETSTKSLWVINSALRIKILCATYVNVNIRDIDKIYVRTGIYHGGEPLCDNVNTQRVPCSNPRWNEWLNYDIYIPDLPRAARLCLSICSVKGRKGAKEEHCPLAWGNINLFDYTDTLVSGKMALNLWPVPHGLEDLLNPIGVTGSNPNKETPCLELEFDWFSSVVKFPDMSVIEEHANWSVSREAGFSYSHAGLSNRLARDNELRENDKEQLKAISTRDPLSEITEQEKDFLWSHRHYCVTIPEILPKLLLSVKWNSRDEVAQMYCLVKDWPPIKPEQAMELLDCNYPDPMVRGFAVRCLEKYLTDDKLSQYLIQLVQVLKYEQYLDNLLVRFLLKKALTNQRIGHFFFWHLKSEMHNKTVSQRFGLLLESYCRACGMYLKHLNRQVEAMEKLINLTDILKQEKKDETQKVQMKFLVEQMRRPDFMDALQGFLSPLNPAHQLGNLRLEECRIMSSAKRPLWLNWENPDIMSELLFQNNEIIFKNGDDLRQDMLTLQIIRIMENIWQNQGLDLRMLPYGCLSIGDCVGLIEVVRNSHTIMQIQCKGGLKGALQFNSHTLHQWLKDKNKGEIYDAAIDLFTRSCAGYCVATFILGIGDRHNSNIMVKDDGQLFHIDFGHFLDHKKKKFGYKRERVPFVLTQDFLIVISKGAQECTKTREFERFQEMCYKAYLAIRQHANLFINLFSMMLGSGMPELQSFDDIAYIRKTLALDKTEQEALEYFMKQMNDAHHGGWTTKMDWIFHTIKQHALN
row,pIC50,SMILES
1,> 6.00,CC(C)(C)Cn1cnc2c(-c3cnc(N)cn3)nc(N3CCOCC3)nc21
2,> 6.00,Nc1cnc(-c2nc(N3CCOCC3)nc3c2ncn3C2CCCC2)cn1
3,> 6.00,Cc1cccc(-n2cnc3c(-c4cnc(N)cn4)nc(N4CCOCC4)nc32)c1
4,> 6.00,CC(C)C(C)n1cnc2c(-c3cnc(N)cn3)nc(N3CCOCC3)nc21 (stereo not given)
5,> 6.00,CCC(CC)n1cnc2c(-c3cnc(N)cn3)nc(N3CCOCC3)nc21
6,> 6.00,Nc1cnc(-c2nc(N3CCOCC3)nc3c2ncn3C2CCC2)cn1
7,> 6.00,Nc1cnc(-c2nc(N3CCOCC3)nc3c2nc(Br)n3C2CCOC2)cn1 (stereo not given)
8,> 6.00,Nc1cnc(-c2nc(N3CCOCC3)nc3c2ncn3CC2CC2)cn1
9,> 6.00,Nc1cnc(-c2nc(N3CCOCC3)nc3c2ncn3Cc2c(F)cccc2F)cn1
10,> 6.00,CCC(C#N)n1cnc2c(-c3cnc(N)cn3)nc(N3CCOCC3)nc21 (stereo not given)
11,> 6.00,Nc1cnc(-c2nc(N3CCOCC3)nc3c2ncn3-c2ccccc2)cn1
12,> 6.00,Nc1cnc(-c2nc(N3CCOCC3)nc3c2ncn3Cc2ccccc2)cn1
13,> 6.00,Nc1cnc(-c2nc(N3CCOCC3)nc3c2ncn3C2CCN(c3ccccc3)CC2)cn1
14,> 6.00,CCC(C)n1cnc2c(-c3cnc(N)cn3)nc(N3CCOCC3)nc21 (stereo not given)
15,> 6.00,Nc1cnc(-c2nc(N3CCOCC3)nc3c2ncn3C2CCN(c3ccccc3)C2)cn1 (stereo not given)
16,> 6.00,Nc1cnc(-c2nc(N3CCOCC3)nc3c2ncn3-c2ccc3c(c2)OCO3)cn1
17,> 6.00,CC1CCCCC1n1cnc2c(-c3cnc(N)cn3)nc(N3CCOCC3)nc21 (stereo not given)
18,> 6.00,Nc1cnc(-c2nc(N3CCOCC3)nc3c2ncn3C2Cc3ccccc3C2)cn1
19,> 6.00,Nc1cnc(-c2nc(N3CCOCC3)nc3[nH]cnc23)cn1
20,> 6.00,Nc1cnc(-c2nc(N3CCOCC3)nc3c2ncn3C2CCOC2)cn1 (stereo not given)
21,> 6.00,CCC(C)n1c(Br)nc2c(-c3cnc(N)cn3)nc(N3CCOCC3)nc21 (stereo not given)
22,> 6.00,Nc1cnc(-c2nc(N3CCOCC3)nc3c2ncn3C2CCc3ccccc3C2)cn1 (stereo not given)
23,> 6.00,Nc1cnc(-c2nc(N3CCOCC3)nc3c2ncn3C2CCc3ccccc32)cn1 (stereo not given)
24,> 6.00,COCC(C)n1cnc2c(-c3cnc(N)cn3)nc(N3CCOCC3)nc21 (stereo not given)
25,> 6.00,CC(C1CC1)n1cnc2c(-c3cnc(N)cn3)nc(N3CCOCC3)nc21 (stereo not given)
